# Results published in patent publication US12435044B2, “Pyridazinone herbicides and pyridazinone intermediates used to prepare a herbicide” (FMC Corporation, priority 2018, dated 2025).
# What was measured:
# Type in all cases: in vivo
# [1] = test system: monochoria (Monochoria vaginalis); experiment: Test F flooded paddy test; settings: Flood, after 21 d
# Description: (§1) Three plastic pots (ca. 16-cm diameter) per rate were partially filled with sterilized Tama silt loam soil comprising a 35:50:15 ratio of sand, silt and clay and 2.6% organic matter. Separate plantings for each of the three pots were as follows. Seeds from the U.S. of monochoria (Monochoria vaginalis), sedge, umbrella (small-flower umbrella sedge, Cyperus difformis) and redstem (purple redstem, Ammannia coccinea), were planted into one 16-cm pot for each rate. Seeds from the U.S. of rice flatsedge (Cyperus iria), sprangletop, Brdd. (bearded sprangletop, Leptochloa fascicularis), one stand of 9 or 10 water seeded rice seedlings (Rice, W. S. Jap, Oryza sativa cv. ‘Japonica-M202’ or Rice, W. S. Ind, ‘Indica’), and two stands of 3 or 4 transplanted rice seedlings (Oryza sativa cv. ‘Japonica-M202’) were planted into one 16-cm pot for each rate. Seeds from the U.S. of barnyardgrass (Echinochloa crus-galli), and late watergrass (Echinochloa oryzicola) were planted into one 16-cm pot for each rate.
# (§2) Plantings were sequential so that crop and weed species were at the 2.0 to 2.5-leaf stage at time of treatment.
# (§3) Potted plants were grown in a greenhouse with day/night temperature settings of 30/27° C., and supplemental balanced lighting was provided to maintain a 16-hour photoperiod. Test pots were maintained in the greenhouse until test completion.
# (§4) At time of treatment, test pots were flooded to 3 cm above the soil surface, treated by application of test compounds directly to the paddy water, and then maintained at that water depth for the duration of the test. Effects of treatments on rice and weeds were visually evaluated by comparison to untreated controls after 21 d. Plant response ratings, summarized in Table F, are based on a scale of 0 to 100 where 0 is no effect and 100 is complete control. A dash (-) response means no test result.
# [2] = test system: transplanted rice seedlings (Oryza sativa cv. ‘Japonica-M202’); experiment: Test F flooded paddy test; settings: Flood, after 21 d
# Description: as §1, §2, §3, §4
# [3] = test system: barnyardgrass (Echinochloa crus-galli); experiment: Test F flooded paddy test; settings: Flood, after 21 d
# Description: as §1, §2, §3, §4
# [4] = test system: water seeded rice seedlings (Rice, W. S. Jap, Oryza sativa cv. ‘Japonica-M202’ or Rice, W. S. Ind, ‘Indica’); experiment: Test F flooded paddy test; settings: Flood, after 21 d
# Description: as §1, §2, §3, §4
# [5] = test system: late watergrass (Echinochloa oryzicola); experiment: Test F flooded paddy test; settings: Flood, after 21 d
# Description: as §1, §2, §3, §4
# [6] = test system: panicum, fall (Panicum dichotomiflorum); experiment: Test E pre-/postemergence greenhouse test
# Description: (§5) Seeds of plant species selected from corn (Zea mays), soybean (Glycine max), velvetleaf (Abutilon theophrasti), lambsquarters (Chenopodium album), poinsettia, wild (Euphorbia heterophylla), pigweed, palmer (Amaranthus palmeri), waterhemp (common waterhemp, Amaranthus rudis), surinam grass (Brachiaria decumbens), crabgrass, large (Digitaria sanguinalis), crabgrass, Brazil (Digitaria horizontalis), panicum, fall (Panicum dichotomiflorum), foxtail, giant (Setaria faberii), foxtail, green (Setaria viridis), goosegrass (Eleusine indica), johnsongrass (Sorghum halepense), ragweed (common ragweed, Ambrosia elatior), barnyardgrass (Echinochloa crus-galli), sandbur (southern sandbur, Cenchrus echinatus), arrowleaf sida (Sida rhombifolia), ryegrass, Italian (Lolium multiflorum), dayflower, VA (Virginia (VA) dayflower, Commelina virginica), field bindweed (Convolvulus arvensis), morningglory (Ipomoea coccinea), horseweed (Conyza canadensis), kochia (Kochia scoparia), nutsedge, yellow (Cyperus esculentus) and hairy beggarticks (Bidenspilosa), were planted into a silt loam soil and treated preemergence with test chemicals formulated in a non-phytotoxic solvent mixture which included a surfactant.
# (§6) At the same time, plants selected from these crop and weed species and also waterhemp_RES1, (ALS & Triazine resistant common waterhemp, Amaranthus rudis), and waterhemp_RES2, (ALS & HPPD resistant common waterhemp, Amaranthus rudis) were planted in pots containing Redi-Earth® planting medium (Scotts Company, 14111 Scottslawn Road, Marysville, Ohio 43041) comprising spaghnum peat moss, vermiculite, wetting agent and starter nutrients were treated with postemergence applications of test chemicals formulated in the same manner. Plants ranged in height from 2 to 18 cm for postemergence treatments (1- to 4-leaf stage). Treated plants and controls were maintained in a greenhouse for 14 to 21 d, after which time all species were compared to controls and visually evaluated. Plant response ratings, summarized in Table E, are based on a scale of 0 to 100 where 0 is no effect and 100 is complete control. A dash (-) response means no test result.
# [7] = test system: surinam grass (Brachiaria decumbens); experiment: Test E pre-/postemergence greenhouse test; settings: Preemergence
# Description: as §5, §6
# [8] = test system: ragweed (common ragweed, Ambrosia elatior); experiment: Test E pre-/postemergence greenhouse test
# Description: as §5, §6
# [9] = test system: horseweed (Conyza canadensis); experiment: Test E pre-/postemergence greenhouse test; settings: Postemergence
# Description: as §5, §6
# [10] = test system: crabgrass, large (Digitaria sanguinalis); experiment: Test E pre-/postemergence greenhouse test; settings: Preemergence
# Description: as §5, §6
# [11] = test system: pigweed, palmer (Amaranthus palmeri); experiment: Test E pre-/postemergence greenhouse test
# Description: as §5, §6
smiles,measurement,setting,value
"Cc1ccc2ccc(C)c(-c3c(O)c(Cl)nn(C)c3=O)c2c1 [Cpd. No. 20, 6-chloro-4-(2,7-dimethyl-1-naphthalenyl)-5-hydroxy-2-methyl-3(2H)-pyridazinone]",Plant response rating (0 to 100 scale),[1]; 31 g ai/ha,10
same,Plant response rating (0 to 100 scale),[1]; 62 g ai/ha,90
same,Plant response rating (0 to 100 scale),[1]; 125 g ai/ha,95
same,Plant response rating (0 to 100 scale),[1]; 250 g ai/ha,99
same,Plant response rating (0 to 100 scale),[2]; 31 g ai/ha,0
same,Plant response rating (0 to 100 scale),[2]; 62 g ai/ha,0
same,Plant response rating (0 to 100 scale),[2]; 125 g ai/ha,0
same,Plant response rating (0 to 100 scale),[2]; 250 g ai/ha,0
same,Plant response rating (0 to 100 scale),[3]; 31 g ai/ha,0
same,Plant response rating (0 to 100 scale),[3]; 62 g ai/ha,0
same,Plant response rating (0 to 100 scale),[3]; 125 g ai/ha,43
same,Plant response rating (0 to 100 scale),[3]; 250 g ai/ha,65
same,Plant response rating (0 to 100 scale),[4]; 31 g ai/ha,0
same,Plant response rating (0 to 100 scale),[4]; 62 g ai/ha,0
same,Plant response rating (0 to 100 scale),[4]; 125 g ai/ha,5
same,Plant response rating (0 to 100 scale),[4]; 250 g ai/ha,23
same,Plant response rating (0 to 100 scale),[5]; 31 g ai/ha,0
same,Plant response rating (0 to 100 scale),[5]; 62 g ai/ha,35
same,Plant response rating (0 to 100 scale),[5]; 125 g ai/ha,50
same,Plant response rating (0 to 100 scale),[5]; 250 g ai/ha,73
same,"Plant response rating, Panicum, Fall","[6]; Postemergence, 16 g ai/ha",70
same,"Plant response rating, Panicum, Fall","[6]; Postemergence, 31 g ai/ha",90
same,"Plant response rating, Panicum, Fall","[6]; Postemergence, 62 g ai/ha",90
same,"Plant response rating, Panicum, Fall","[6]; Postemergence, 125 g ai/ha",95
same,"Plant response rating, Panicum, Fall","[6]; Preemergence, 16 g ai/ha",75
same,"Plant response rating, Panicum, Fall","[6]; Preemergence, 31 g ai/ha",98
same,"Plant response rating, Panicum, Fall","[6]; Preemergence, 62 g ai/ha",98
same,"Plant response rating, Panicum, Fall","[6]; Preemergence, 125 g ai/ha",100
same,"Plant response rating, Surinam Grass",[7]; 16 g ai/ha,35
same,"Plant response rating, Surinam Grass",[7]; 31 g ai/ha,80
same,"Plant response rating, Surinam Grass",[7]; 62 g ai/ha,90
same,"Plant response rating, Surinam Grass",[7]; 125 g ai/ha,100
same,"Plant response rating, Ragweed","[8]; Postemergence, 16 g ai/ha",90
same,"Plant response rating, Ragweed","[8]; Postemergence, 31 g ai/ha",85
same,"Plant response rating, Ragweed","[8]; Postemergence, 62 g ai/ha",95
same,"Plant response rating, Ragweed","[8]; Postemergence, 125 g ai/ha",95
same,"Plant response rating, Ragweed","[8]; Preemergence, 16 g ai/ha",60
same,"Plant response rating, Ragweed","[8]; Preemergence, 31 g ai/ha",95
same,"Plant response rating, Ragweed","[8]; Preemergence, 62 g ai/ha",95
same,"Plant response rating, Ragweed","[8]; Preemergence, 125 g ai/ha",98
same,"Plant response rating, Horseweed",[9]; 16 g ai/ha,80
same,"Plant response rating, Horseweed",[9]; 31 g ai/ha,75
same,"Plant response rating, Horseweed",[9]; 62 g ai/ha,85
same,"Plant response rating, Horseweed",[9]; 125 g ai/ha,80
same,"Plant response rating, Crabgrass, Large",[10]; 16 g ai/ha,65
same,"Plant response rating, Crabgrass, Large",[10]; 31 g ai/ha,65
same,"Plant response rating, Crabgrass, Large",[10]; 62 g ai/ha,75
same,"Plant response rating, Crabgrass, Large",[10]; 125 g ai/ha,80
same,"Plant response rating, Pigweed, Palmer","[11]; Postemergence, 16 g ai/ha",60
same,"Plant response rating, Pigweed, Palmer","[11]; Postemergence, 31 g ai/ha",65
same,"Plant response rating, Pigweed, Palmer","[11]; Postemergence, 62 g ai/ha",70
same,"Plant response rating, Pigweed, Palmer","[11]; Postemergence, 125 g ai/ha",60
same,"Plant response rating, Pigweed, Palmer","[11]; Preemergence, 16 g ai/ha",20
same,"Plant response rating, Pigweed, Palmer","[11]; Preemergence, 31 g ai/ha",35
same,"Plant response rating, Pigweed, Palmer","[11]; Preemergence, 62 g ai/ha",95
same,"Plant response rating, Pigweed, Palmer","[11]; Preemergence, 125 g ai/ha",98
